Reference: EP0226475A1, “Diphenoxyethyl amine derivatives, process for their preparation and pharmaceutical compositions containing them” (Albert ROLLAND S.A. Société dite, priority 1985, dated 1987)

Tests used:
Type in all cases: in vivo
[1] = biological target: DA (Dopamine) uptake (Rattus norvegicus, UniProt P23977); assay: Uptake "ex vivo" of DA; conditions: dose not given
From the text: (§1) Activité sur les tests d'inhibition ou de recapture des principaux médiateurs adrénergiques.
(§2) Les résultats obtenus en comparaison avec ceux des antidépresseurs classiques sont rassemblés dans le tableau II: […]

[2] = biological target: NAd (Nor adrénaline) uptake (Rattus norvegicus, UniProt Q63380); assay: Uptake "ex vivo" of NAd; conditions: dose not given
From the text: as §1

[3] = biological target: 5-HT (Sérotonine) uptake (Rattus norvegicus, UniProt P31652); assay: Uptake "ex vivo" of 5-HT; conditions: dose not given, N.S. = not significant
From the text: as §1, §2

CN(C)CC(Oc1ccccc1)Oc1ccccc1 [MEDIFOXAMINE]
inactif: UPTAKE "EX VIVO" % d'inhibition DA [1] | UPTAKE "EX VIVO" % d'inhibition NAd [2] | UPTAKE "EX VIVO" % d'inhibition 5-HT [3]
